ChEMBL document CHEMBL4483862, “Open-source discovery of chemical leads for next-generation chemoprotective antimalarials” (2018)

Test system: Plasmodium berghei
Assay: Luciferase/luciferin-expressing antifolate-resistant parasites were used to infect a culture of HepG2 cells that were pre-incubated with compounds. Infected hepatocytes emit light due to the luciferase reaction. Assay results are presented as the percent inhibition of light emission compared to control. […]
Assay type: functional
Details: sporozoite; for IC90: read-out: LUCIFERASE INFECTION ASSAY - IC90
[1] = read-out: LUCIFERASE INFECTION ASSAY - IC50

In the case of `COc1ccc2c(CC(=O)N(c3cc(C)cc(C)c3)c3nc(-c4ccc(Br)cc4)cs3)coc2c1`, the IC50 (FFLUC_HILL_SLOPE 2.23, FFLUC_R_SQUARED 0.6, read-out: LUCIFERASE INFECTION ASSAY - IC50) is reported as > 10 µM and the IC90 is reported as > 10 µM.
For `Clc1ccc(-c2cnc3cnc(-c4ccccc4)cn23)cc1`, the IC50 (PBLUC_HILL_SLOPE 10.1, PBLUC_R_SQUARED 0.74, read-out: LUCIFERASE INFECTION ASSAY - IC50) was 3.88 µM and the IC90 was 4.82 µM.
Molecule `O=C(NCc1ccc(-c2nc3ccccc3s2)cc1)c1ccco1` has an IC50 [1] of 2.81 µM and an IC90 of 3.45 µM.
With `S=C(Nc1ccc(C2=NCCO2)cc1)Nc1ccc(Cl)c(Cl)c1` the IC50 [1] was > 9.01 µM and the IC90 was > 9.01 µM.
In the case of `N#Cc1ccc(-c2cnc3cnc(-c4cnn(Cc5ccccc5)c4)cn23)cc1`, the IC50 (FFLUC_HILL_SLOPE 0.364, FFLUC_R_SQUARED 0.0429, PBLUC_HILL_SLOPE 3.85, PBLUC_R_SQUARED 0.0396, read-out: LUCIFERASE INFECTION ASSAY - IC50) is reported as 7.64 µM and the IC90 is reported as > 8.77 µM.
In the case of `Cc1[nH]c2ccc(C(=O)Nc3ccc(N4CCOCC4)nc3)cc2c1C`, the IC50 (FFLUC_HILL_SLOPE 22.7, FFLUC_R_SQUARED 0.475, read-out: LUCIFERASE INFECTION ASSAY - IC50) is reported as > 10 µM and the IC90 is reported as > 10 µM.
For `Cc1nc(SCC(=O)NCCN2C(=O)CSC2=O)n(C2CCCCC2)c1C`, the IC50 [1] was > 10 µM and the IC90 was > 10 µM.
`COc1ccccc1NC(=O)C(C)OC(=O)c1ccc(NS(=O)(=O)c2ccc(Cl)c(Cl)c2)cc1` (stereo unspecified) was tested, and the IC50 (HEPG2TOX_HILL_SLOPE 8.29, HEPG2TOX_R_SQUARED 0.881, read-out: LUCIFERASE INFECTION ASSAY - IC50) was > 10 µM and the IC90 was > 10 µM.
In the case of `OCc1ccc(-c2cn3c(-c4ccc(Oc5ccccc5)cc4)cnc3cn2)cc1`, the IC50 (PBLUC_HILL_SLOPE 2.74, PBLUC_R_SQUARED 0.523, read-out: LUCIFERASE INFECTION ASSAY - IC50) is reported as 5.32 µM and the IC90 is reported as > 8.39 µM.
For `Cc1cccc(C2NC(=O)NC3=C2C(=O)N(CCc2ccccc2)C3)c1` (stereo unspecified), the IC50 [1] was > 10 µM and the IC90 was > 10 µM.
`CC1CCc2sc(C(=O)N/N=C/c3sc(N4CCCCC4)nc3-c3cccs3)cc2C1` (stereo unspecified) showed an IC50 (FFLUC_HILL_SLOPE 3.43, FFLUC_R_SQUARED 0.712, HEPG2TOX_HILL_SLOPE 2.9, HEPG2TOX_R_SQUARED 0.728, PBLUC_HILL_SLOPE 3.74, PBLUC_R_SQUARED 0.491, read-out: LUCIFERASE INFECTION ASSAY - IC50) of 2.79 µM and an IC90 of 5.03 µM.
Molecule `CCCNC(=O)c1c(NC(=O)c2ccc(C(F)(F)F)cc2)nc2ccccn12` has an IC50 (FFLUC_HILL_SLOPE 16.1, FFLUC_R_SQUARED 0.832, HEPG2TOX_HILL_SLOPE 0.765, HEPG2TOX_R_SQUARED 0.858, PBLUC_HILL_SLOPE 8.91, PBLUC_R_SQUARED 0.524, read-out: LUCIFERASE INFECTION ASSAY - IC50) of 0.344 µM and an IC90 of 0.441 µM.
`COCCCNc1nccn2c(-c3ccccc3OC)cnc12` showed an IC50 (FFLUC_HILL_SLOPE 1.63, FFLUC_R_SQUARED 0.685, HEPG2TOX_HILL_SLOPE 3.12, HEPG2TOX_R_SQUARED 0.689, PBLUC_HILL_SLOPE 1.97, PBLUC_R_SQUARED 0.68, read-out: LUCIFERASE INFECTION ASSAY - IC50) of 1.64 µM and an IC90 of 5 µM.
With `CCOC(=O)c1sc(SC)c2c1CCc1conc1-2` the IC50 [1] was > 11.2 µM and the IC90 was > 11.2 µM.
In the case of `CN(C)C(=O)c1cccc(-c2cn3c(-c4ccc(CO)cc4)cnc3cn2)c1`, the IC50 (PBLUC_HILL_SLOPE 11.4, PBLUC_R_SQUARED 0.237, read-out: LUCIFERASE INFECTION ASSAY - IC50) is reported as 8.26 µM and the IC90 is reported as > 8.86 µM.
In the case of `O=C(Nc1nc(-c2ccc3c(c2)CCC3)cs1)c1ccc(CSc2nnc[nH]2)cc1`, the IC50 (HEPG2TOX_HILL_SLOPE 14.2, HEPG2TOX_R_SQUARED 0.936, PBLUC_HILL_SLOPE 3.67, PBLUC_R_SQUARED 0.0328, read-out: LUCIFERASE INFECTION ASSAY - IC50) is reported as 6.58 µM and the IC90 is reported as > 10 µM.
In the case of `NC(=O)N1CCCC(C(=O)N2CCCC(c3nc4ccccc4s3)C2)C1` (stereo unspecified), the IC50 [1] is reported as > 10 µM and the IC90 is reported as > 10 µM.
For `CN(C(=O)COc1cc2ccccc2cc1C(=O)NCc1ccccc1)C1CCCCC1`, the IC50 (FFLUC_HILL_SLOPE 11, FFLUC_R_SQUARED 0.0654, read-out: LUCIFERASE INFECTION ASSAY - IC50) was > 10 µM and the IC90 was > 10 µM.
Work on `Cc1cccc(C)c1N1C(=O)CC(N2CCCC(c3nc4ccccc4s3)C2)C1=O` (stereo unspecified) yielded an IC50 (PBLUC_HILL_SLOPE 1.45, PBLUC_R_SQUARED 0.739, read-out: LUCIFERASE INFECTION ASSAY - IC50) of 1.99 µM and an IC90 of 9.05 µM.
`CC(N=C(S)Nc1ccc(OC(F)F)c(Cl)c1)C(C)(C)C` (stereo unspecified) was tested, and the IC50 (HEPG2TOX_HILL_SLOPE 8.22, HEPG2TOX_R_SQUARED 0.242, PBLUC_HILL_SLOPE 12.6, PBLUC_R_SQUARED 0.772, read-out: LUCIFERASE INFECTION ASSAY - IC50) was 8.6 µM and the IC90 was > 10 µM.
`NC(=O)C1CCN(c2nc(-c3ccc(Cl)cc3)nc3sc4c(c23)CCC4)CC1` showed an IC50 (FFLUC_HILL_SLOPE 3.15, FFLUC_R_SQUARED 0.774, HEPG2TOX_HILL_SLOPE 6.41, HEPG2TOX_R_SQUARED 0.32, PBLUC_HILL_SLOPE 20.1, PBLUC_R_SQUARED 0.486, read-out: LUCIFERASE INFECTION ASSAY - IC50) of 3.4 µM and an IC90 of 3.79 µM.
Molecule `COc1ccc(C(N)=O)c(OCC(=O)c2cc(C)n(Cc3ccccc3)c2C)c1` has an IC50 (HEPG2TOX_HILL_SLOPE 1.79, HEPG2TOX_R_SQUARED 0.962, PBLUC_HILL_SLOPE 4.42, PBLUC_R_SQUARED 0.333, read-out: LUCIFERASE INFECTION ASSAY - IC50) of 5.78 µM and an IC90 of 9.51 µM.
`O=c1c2c3c(sc2nc(SCc2cc([N+](=O)[O-])cc4c2OCOC4)n1C1CCCC1)CCCC3` was tested, and the IC50 (FFLUC_HILL_SLOPE 0.343, FFLUC_R_SQUARED 0.0189, read-out: LUCIFERASE INFECTION ASSAY - IC50) was > 10 µM and the IC90 was > 10 µM.
`Cn1ccnc1S/C(=C/C=C(C#N)C#N)c1ccc(Cl)cc1` was tested, and the IC50 (HEPG2TOX_HILL_SLOPE 6.6, HEPG2TOX_R_SQUARED 0.647, PBLUC_HILL_SLOPE 3.43, PBLUC_R_SQUARED 0.702, read-out: LUCIFERASE INFECTION ASSAY - IC50) was 5.57 µM and the IC90 was > 10.1 µM.
In the case of `Clc1cc2c(c3ncccc13)OCN(Cc1ccco1)C2`, the IC50 (FFLUC_HILL_SLOPE 3.15, FFLUC_R_SQUARED 0.751, HEPG2TOX_HILL_SLOPE 1.67, HEPG2TOX_R_SQUARED 0.873, PBLUC_HILL_SLOPE 9.79, PBLUC_R_SQUARED 0.762, read-out: LUCIFERASE INFECTION ASSAY - IC50) is reported as 1.15 µM and the IC90 is reported as 1.44 µM.
`Cc1c(C(=O)Nc2ccc(N3CCOCC3)cc2N2CCOCC2)oc2ccc(F)cc12` was tested, and the IC50 [1] was > 10 µM and the IC90 was > 10 µM.
In the case of `O=C(COc1ccccc1)Nc1nc2ccccn2c1C(=O)NC1CCCC1`, the IC50 (PBLUC_HILL_SLOPE 2.22, PBLUC_R_SQUARED 0.0336, read-out: LUCIFERASE INFECTION ASSAY - IC50) is reported as 7.18 µM and the IC90 is reported as > 8.72 µM.
In the case of `Cc1cc(-c2csc(Nc3ccccn3)n2)c(C)n1-c1nccs1`, the IC50 [1] is reported as > 10 µM and the IC90 is reported as > 10 µM.
In the case of `COc1cc2[nH]c(C(=O)Nc3cccc(C(F)(F)F)c3)cc2c(OC)c1OC`, the IC50 [1] is reported as 7.63 µM and the IC90 is reported as 8.28 µM.
`CCCCNC(=O)c1c(NC(=O)c2ccc(F)c(F)c2)nc2ccc(C)cn12` showed an IC50 (FFLUC_HILL_SLOPE 0.0723, FFLUC_R_SQUARED 0.0194, HEPG2TOX_HILL_SLOPE 0.765, HEPG2TOX_R_SQUARED 0.862, PBLUC_HILL_SLOPE 1.87, PBLUC_R_SQUARED 0.784, read-out: LUCIFERASE INFECTION ASSAY - IC50) of 1.09 µM and an IC90 of 3.54 µM.
With `CN(CC(=O)N1CCN(C(c2ccc(F)cc2)c2ccc(F)cc2)CC1)C1=NS(=O)(=O)c2ccccc21` the IC50 [1] was > 10 µM and the IC90 was > 10 µM.
Molecule `Cn1ccc2cc(-c3cnc4cnc(-c5cccc(C(=O)NCCO)c5)cn34)ccc21` has an IC50 (HEPG2TOX_HILL_SLOPE 4.1, HEPG2TOX_R_SQUARED 0.752, PBLUC_HILL_SLOPE 9.77, PBLUC_R_SQUARED 0.277, read-out: LUCIFERASE INFECTION ASSAY - IC50) of 2.9 µM and an IC90 of 3.63 µM.
`COc1cc(C2NCC(c3ccc(Cl)cc3Cl)c3c2[nH]c2ccccc32)ccc1OCC(C)C` (stereo unspecified) was tested, and the IC50 (PBLUC_HILL_SLOPE 12.5, PBLUC_R_SQUARED 0.54, read-out: LUCIFERASE INFECTION ASSAY - IC50) was 3.15 µM and the IC90 was 3.76 µM.
Molecule `O=C(Nc1ccc(Oc2ccccc2)cc1)c1noc(-c2ccccc2)n1` has an IC50 (PBLUC_HILL_SLOPE 3.74, PBLUC_R_SQUARED 0.217, read-out: LUCIFERASE INFECTION ASSAY - IC50) of 3.67 µM and an IC90 of 6.61 µM.
For `O=C(/C=C/c1ccc(-n2cncn2)c(F)c1)c1cccc(OC(F)F)c1`, the IC50 (FFLUC_HILL_SLOPE 115, FFLUC_R_SQUARED 0.0591, PBLUC_HILL_SLOPE 174, PBLUC_R_SQUARED 0.383, read-out: LUCIFERASE INFECTION ASSAY - IC50) was 5.39 µM and the IC90 was 5.45 µM.
Molecule `Cn1ccc2cc(-c3cn4c(-c5cccc(O)c5)cnc4cn3)ccc21` has an IC50 (HEPG2TOX_HILL_SLOPE 1.21, HEPG2TOX_R_SQUARED 0.948, PBLUC_HILL_SLOPE 1.63, PBLUC_R_SQUARED 0.761, read-out: LUCIFERASE INFECTION ASSAY - IC50) of 0.805 µM and an IC90 of 3.11 µM.
For `Oc1cccc(-c2cnc3cnc(-c4ccccc4Cl)cn23)c1`, the IC50 (HEPG2TOX_HILL_SLOPE 2.92, HEPG2TOX_R_SQUARED 0.924, PBLUC_HILL_SLOPE 1.11, PBLUC_R_SQUARED 0.809, read-out: LUCIFERASE INFECTION ASSAY - IC50) was 1.72 µM and the IC90 was > 10.3 µM.
For `CC(=O)Nc1cccc(/C(C)=N/n2c(-c3cccc(Br)c3)cs/c2=N\c2ccc(F)cc2)c1`, the IC50 (HEPG2TOX_HILL_SLOPE 2.5, HEPG2TOX_R_SQUARED 0.833, PBLUC_HILL_SLOPE 128, PBLUC_R_SQUARED 0.253, read-out: LUCIFERASE INFECTION ASSAY - IC50) was 1.66 µM and the IC90 was 1.69 µM.
